Measured values from patent US20250136614A1, “2,7-SUBSTITUTED PYRROLO[2,1-F][1,2,4]TRIAZINE COMPOUND HAVING PROTEIN KINASE INHIBITORY ACTIVITY” (Magicbullettherapeutics Co., Ltd., priority 2021, published 2025).

What was measured:
Assay type in all cases: cell-based
HCT116 = assay: Cancer cell growth inhibition (CellTiter-Glo, 72 hours); conditions: Homo sapiens, HCT-116, HCT116 cells, read-out: GI50s (μM) HCT116
Experimental: (§1) Seeding 3000 cells per well in a 96-well plate. After cell stabilization, treat the cells with compounds diluted in 0.5% DMSO at a ⅓ serial dilution and culture for 72 hours. Following treatment with CellTiter-Glo, luminescence is produced only in the presence of ATP, as luciferase degrades luciferin. Luminescence values were measured using Envision (PerkinElmer). Based on the measured luminescence values, the concentration of compounds causing cell death was calculated to determine the GI50 value.
(§2) The activity values were categorized into three levels • A: IC50<1 μM • B: 1 μM≤IC50<10 μM, • C: IC50≥10 μM

H1975 = assay: as above; conditions: Homo sapiens, NCI-H1975, H1975 cells, read-out: GI50s (μM) H1975
Experimental: as §1, §2

H358 = assay: as above; conditions: Homo sapiens, NCI-H358, H358 cells, read-out: GI50s (μM) H358
Experimental: as §1, §2

colo205 = assay: as above; conditions: Homo sapiens, COLO 205, colo205 cells, read-out: GI50s (μM) colo205
Experimental: as §1, §2

H23 = assay: as above; conditions: Homo sapiens, NCI-H23, H23 cells, read-out: GI50s (μM) H23
Experimental: as §1, §2

MDA-MB-231 = assay: as above; conditions: Homo sapiens, MDA-MB-231 cells, read-out: GI50s (μM) MDA-MB-231
Experimental: as §1, §2

Ba/F3 parental = assay: Ba/F3 cell growth inhibition (CellTiter-Glo, 72 hours); conditions: Mus musculus, BaF3, Ba/F3 parental cells, read-out: Ba/F3 GI50s (μM) parental
Experimental: as §1, with “[…]” for “0.5%”
(§3) The activity values were categorized into three levels. • A: IC50<1 μM • B: 1 μM≤IC50<10 μM, • C: IC50≥10 μM

Ba/F3 FLT3 (ITD) = biological target: T1, Ba/F3 FLT3 (ITD) (Homo sapiens, UniProt P36888, cells depend on it, form not given); assay: as above; conditions: read-out: Ba/F3 GI50s (μM) FLT3 (ITD)
T1 sequence (P36888 1-993): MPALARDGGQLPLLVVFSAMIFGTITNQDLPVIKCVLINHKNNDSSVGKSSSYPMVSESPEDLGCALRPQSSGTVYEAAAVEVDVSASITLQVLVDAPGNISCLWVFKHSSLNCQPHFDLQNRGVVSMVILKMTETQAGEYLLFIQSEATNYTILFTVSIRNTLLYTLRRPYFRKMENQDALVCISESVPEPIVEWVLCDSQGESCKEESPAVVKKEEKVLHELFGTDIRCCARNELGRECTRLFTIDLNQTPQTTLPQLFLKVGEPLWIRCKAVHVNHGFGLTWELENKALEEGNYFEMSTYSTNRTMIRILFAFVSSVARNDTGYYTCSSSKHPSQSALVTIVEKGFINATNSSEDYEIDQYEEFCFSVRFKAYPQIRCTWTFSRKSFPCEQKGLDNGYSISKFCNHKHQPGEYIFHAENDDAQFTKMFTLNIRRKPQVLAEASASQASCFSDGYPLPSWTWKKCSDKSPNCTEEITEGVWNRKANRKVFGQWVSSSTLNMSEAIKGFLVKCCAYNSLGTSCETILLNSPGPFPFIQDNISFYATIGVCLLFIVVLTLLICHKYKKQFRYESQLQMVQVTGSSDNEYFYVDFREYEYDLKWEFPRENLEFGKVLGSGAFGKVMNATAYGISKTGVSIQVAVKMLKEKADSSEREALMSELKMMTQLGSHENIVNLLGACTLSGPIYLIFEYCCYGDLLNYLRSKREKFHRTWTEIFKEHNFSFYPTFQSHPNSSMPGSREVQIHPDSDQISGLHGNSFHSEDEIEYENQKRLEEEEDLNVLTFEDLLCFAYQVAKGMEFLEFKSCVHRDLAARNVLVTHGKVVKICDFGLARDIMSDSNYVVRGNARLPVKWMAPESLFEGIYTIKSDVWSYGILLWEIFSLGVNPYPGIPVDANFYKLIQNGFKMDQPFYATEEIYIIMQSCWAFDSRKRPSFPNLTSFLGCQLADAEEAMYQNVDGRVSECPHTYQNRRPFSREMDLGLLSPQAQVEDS
Experimental: as §1, with “[…]” for “0.5%”
as §3

Compound | IC50 (HCT116) | IC50 (H1975) | IC50 (H358) | IC50 (colo205) | IC50 (H23) | IC50 (MDA-MB-231) | GI50 (Ba/F3 FLT3 (ITD)) | IC50 (Ba/F3 parental)
O=C1CCCCCCOc2ccc(cc2)-c2ccc3cnc(nn23)Nc2ccc(cc2)N2CCN(CCCN1)CC2 [Example 23, (Z)-17-oxa-3,9-diaza-2(7,2)-pyrrolo[2,1-f][1,2,4]triazina-5(1,4)-piperazina-1,4(1,4)-dibenzenacycloheptadecaphan-10-one] | 1 to 10 µM | 1 to 10 µM | 1 to 10 µM | 1 to 10 µM | < 1 µM | ≥ 10 µM | < 1 µM | ≥ 10 µM
CS(=O)(=O)Nc1cccc(-c2ccc3cnc(Nc4ccc(N5CCN(CCCCCCCCCCCOc6cccc7c6C(=O)N(C6CCC(=O)NC6=O)C7=O)CC5)cc4)nn23)c1 (stereo not shown) [Example 42] | ≥ 10 µM | ≥ 10 µM | ≥ 10 µM | ≥ 10 µM | ≥ 10 µM | ≥ 10 µM | < 1 µM | 1 to 10 µM
CS(=O)(=O)Nc1cccc(-c2ccc3cnc(Nc4ccc(N5CCN(CCCCCOc6cccc7c6C(=O)N(C6CCC(=O)NC6=O)C7=O)CC5)cc4)nn23)c1 (stereo not shown) [Example 39] | ≥ 10 µM | ≥ 10 µM | ≥ 10 µM | ≥ 10 µM | ≥ 10 µM | ≥ 10 µM | ≥ 10 µM | ≥ 10 µM
CS(=O)(=O)N1CCCn2cc(cn2)Nc2ncc3ccc(n3n2)-c2ccc(cc2)OCC1 [Example 9, (2^1Z,4^4E)-8-(methylsulfonyl)-4^1H-11-oxa-3,8-diaza-2(7,2)-pyrrolo[2,1-f][1,2,4]triazina-4(4,1)-pyrazola-1(1,4)-benzenecycloundecaphane] | < 1 µM | 1 to 10 µM | < 1 µM | 1 to 10 µM | 1 to 10 µM | ≥ 10 µM | < 1 µM | 1 to 10 µM
O=C1CCCCOc2ccc(cc2)-c2ccc3cnc(nn23)Nc2cnn(c2)C2CCN1CC2 [Example 25, (2^1Z,4^4E)-4^1H-11-oxa-3-aza-2(7,2)-pyrrolo[2,1-f][1,2,4]triazina-5(4,1)-piperidina-4(4,1)-pyrazola-1(1,4)-benzenacycloundecaphan-6-one] | < 1 µM | ≥ 10 µM | ≥ 10 µM | ≥ 10 µM | 1 to 10 µM | ≥ 10 µM | < 1 µM | ≥ 10 µM
Cc1ncsc1-c1ccc(CNC(=O)[C@@H]2C[C@@H](O)CN2C(=O)[C@@H](NC(=O)CCOCCOCCN2CCN(c3ccc(Nc4ncc5ccc(-c6cccc(NS(C)(=O)=O)c6)n5n4)cc3)CC2)C(C)(C)C)cc1 [Example 84, (2S,4R)-1-((S)-3,3-dimethyl-2-(3-(2-(2-(4-(4-((7-(3-(methanesulfonamido)phenyl)pyrrolo[2,1-f][1,2,4]triazin-2-yl)amino)phenyl)piperazin-1-yl)ethoxy)ethoxy)propanamido)butanoyl)-4-hydroxy-N-(4-(4-methylthiazol-5-yl)benzyl)pyrrolidin-2-carboxamide] | 1 to 10 µM | 1 to 10 µM | 1 to 10 µM | ≥ 10 µM | 1 to 10 µM | ≥ 10 µM | 1 to 10 µM | 1 to 10 µM

Continued, in another order:

IC50 (HCT116) | IC50 (H1975) | IC50 (H358) | IC50 (colo205) | IC50 (H23) | IC50 (MDA-MB-231) | GI50 (Ba/F3 FLT3 (ITD)) | Compound | IC50 (Ba/F3 parental)
1 to 10 µM | 1 to 10 µM | 1 to 10 µM | 1 to 10 µM | 1 to 10 µM | ≥ 10 µM | < 1 µM | O=C1CCCCCCOc2ccc(cc2)-c2ccc3cnc(nn23)Nc2ccc(cc2)OCCCN1 [Example 29, (Z)-5,17-dioxa-3,9-diaza-2(7,2)-pyrrolo[2,1-f][1,2,4]triazina-1,4(1,4)-dibenzenacycloheptadecaphan-10-one] | ≥ 10 µM
≥ 10 µM | ≥ 10 µM | ≥ 10 µM | ≥ 10 µM | ≥ 10 µM | 1 to 10 µM | 1 to 10 µM | COc1cc2ccc1Nc1ncc3ccc(n3n1)-c1ccc(cc1)OCCOCC(=O)NCCCO2 [Example 34, (Z)-42-methoxy-5,12,15-trioxa-3,9-diaza-2(7,2)-pyrrolo[2,1-f][1,2,4]triazina-1,4(1,4)-dibenzenacyclopentadecaphan-10-one] | ≥ 10 µM
1 to 10 µM | 1 to 10 µM | 1 to 10 µM | 1 to 10 µM | 1 to 10 µM | ≥ 10 µM | < 1 µM | O=C1COCCOc2ccc(cc2)-c2ccc3cnc(nn23)Nc2cnn(c2)CCCN1 [Example 35, (2^1Z,4^4E)-4^1H-11,14-dioxa-3,8-diaza-2(7,2)-pyrrolo[2,1-f1][1,2,4]triazina-4(4,1)-pyrazola-1(1,4)-benzenacyclotetradecaphan-9-one] | 1 to 10 µM
≥ 10 µM | ≥ 10 µM | ≥ 10 µM | ≥ 10 µM | ≥ 10 µM | ≥ 10 µM | < 1 µM | CS(=O)(=O)Nc1cccc(-c2ccc3cnc(Nc4ccc(N5CCN(CCCCCCCOc6cccc7c6C(=O)N(C6CCC(=O)NC6=O)C7=O)CC5)cc4)nn23)c1 (stereo not shown) [Example 41] | 1 to 10 µM
< 1 µM | < 1 µM | < 1 µM | < 1 µM | < 1 µM | ≥ 10 µM | < 1 µM | O=C1CCCCOc2ccc(cc2)-c2ccc3cnc(nn23)Nc2cnn(c2)C2CCN(CCCN1)CC2 [Example 26, (2^1Z,4^4E)-4^1H-15-oxa-3,9-diaza-2(7,2)-pyrrolo[2,1-f1][1,2,4]triazina-5(4,1)-piperidina-4(4,1)-pyrazola-1(1,4)-benzenacyclopentadecaphan-10-one] | ≥ 10 µM
1 to 10 µM | ≥ 10 µM | 1 to 10 µM | ≥ 10 µM | ≥ 10 µM | ≥ 10 µM | < 1 µM | O=C1CCCCOc2ccc(cc2)-c2ccc3cnc(nn23)Nc2ccc(cc2)OCCCN1 [Example 38, (Z)-5,15-dioxa-3,9-diaza-2(7,2)-pyrrolo[2,1-f][1,2,4]triazina-1,4(1,4)-dibenzenacyclopentadecaphan-10-one] | ≥ 10 µM
1 to 10 µM | 1 to 10 µM | 1 to 10 µM | 1 to 10 µM | 1 to 10 µM | ≥ 10 µM | < 1 µM | O=C1COCCOc2ccc(cc2)-c2ccc3cnc(nn23)Nc2ccc(cc2)OCCCN1 [Example 28, (Z)-5,12,15-trioxa-3,9-diaza-2(7,2)-pyrrolo[2,1-f][1,2,4]triazina-1,4(1,4)-dibenzenacyclopentadecaphan-10-one] | < 1 µM
< 1 µM | 1 to 10 µM | 1 to 10 µM | 1 to 10 µM | < 1 µM | ≥ 10 µM | < 1 µM | O=C1CCCCOc2ccc(cc2)-c2ccc3cnc(nn23)Nc2cnn(c2)CCCN1 [Example 36, (2^1Z,4^4E)-4^1H-14-oxa-3,8-diaza-2(7,2)-pyrrolo[2,1-f][1,2,4]triazina-4(4,1)-pyrazola-1(1,4)-benzenacyclotetradecaphan-9-one] | 1 to 10 µM
